# According to patent US20080267996A1 (priority 2005, published 2008):
# Columns and labels:
# HBsAg = HBsAg / Anti-HBs serotyping (VITROS ECi); assay type: in vivo, hepatitis B virus; settings: Week 14/18; Part 2 Group C (n 11)
# Experimental: Serotyping was performed using a VITROS ECi Immunodiagnostic System.
# [1] = test system: HBs peptide pools (PreS2 + S ayw) and HbsAg protein; assay: Ex vivo IFN-gamma ELISPOT of patient PBMC; assay type: in vivo, human; settings: Part 2 Groups A, B, C
# Experimental: ELISPOT Assays were carried out by Cellular Technology Limited (CTL Laboratory LLC. 10515 Carnegie Ave., Suite 503 Cleveland Ohio 44106, USA) using the following assay conditions:
# The following peptides were pooled and used as antigens:
# The HBs series of peptides are arranged into 4 distinct pools of peptides, each containing up to 12 total peptides:
# The entire HbsAg protein was also used as an antigen.
# An ELISPOT response to a peptide pool (or HbsAg protein) was considered to have occurred when the mean +/− standard deviation for the peptide pool, or HbsAg protein, was greater than the mean +3 standard deviations of that patient's negative control.
smiles,measurement,setting,value
"Nc1ccn([C@@H]2CS[C@H](CO)O2)c(=O)n1 [lamivudine, Lamivudine]","HBsAg−, percent of patients",HBsAg,9%
same,"baseline immunological responses (detected prior to treatment, unchanged or reduced)",[1],3
same,boosted immunological responses (of baseline responses),[1],5/8
same,de novo immunological responses (of baseline non-responders),[1],0/3
